Assays:
[1] = molecular target: recombinant JAK1 (amino acids 866-1154) (Homo sapiens (Human), UniProt P23458); assay: Enzyme inhibition studies, JAK1 (5 mM ATP, Caliper); type: biochemical
Protocol: (§1) JAK enzyme was expressed as N-terminal GST fusion in insect cells and purified by glutathione-affinity and size-exclusion chromatographies. Enzymes were assayed at their approximated high end of physiological ATP concentration of 5 mM, in the presence of inhibitor dosed at 30, 3, 0.3, 0.03, 0.003 and 0 μM final test concentrations.
(§2) Phosphorylated and unphosphotylated peptides were separated and quantified by a Caliper LC3000 system (Caliper Life Sciences, MA) for calculating percent inhibition.

[2] = test system: IL-13 induced STAT6 promotor luciferase reporter in U937 monocytes (U937-STAT6-Luc); assay: Cellular interleukin (IL-13) induced JAK-STAT6-luciferase assay (pSTAT6); type: cell-based; settings: Homo sapiens, U-937; IL-13 induced STAT6-luciferase, U937-STAT6-Luc cells
Protocol: Cells were harvested by centrifugation at 250 g for 5 min and resuspended in Assay buffer (20 mM HEPES, 1×HBSS and 0.1% BSA) to 1000 cells pr μl. For stimulation of cells was used interleukin (IL-13) also dissolved in Assay buffer to […]. […] Test and control compounds were applied to assay plates (low vol white 384-well plates) in serial dilutions from 10 mM to 0.5 nM at 5 nl pr well in DMSO.
To each well was added 4 μl cells and 4 μl interleukin (IL-13) and the plates were sealed and incubated at 37° C. for 4½ h and then at room temperature for 30 min. The assay was developed by addition of 4 μl pr well of SteadyGlo (Promega) and after […] the plates were read at an Envision plate reader with luminescence filter.

[3] = molecular target: recombinant JAK2 (amino acids 831-1132) (Homo sapiens (Human), UniProt O60674); assay: Enzyme inhibition studies, JAK2 (5 mM ATP, Caliper); type: biochemical
Protocol: as §1, §2

[4] = molecular target: recombinant JAK3 (amino acids 781-1124) (Homo sapiens (Human), UniProt P52333); assay: Enzyme inhibition studies, JAK3 (5 mM ATP, Caliper); type: biochemical
Protocol: as §1, §2

recombinant JAK3 (amino acids 781-1124), sequence (P52333 781-1124): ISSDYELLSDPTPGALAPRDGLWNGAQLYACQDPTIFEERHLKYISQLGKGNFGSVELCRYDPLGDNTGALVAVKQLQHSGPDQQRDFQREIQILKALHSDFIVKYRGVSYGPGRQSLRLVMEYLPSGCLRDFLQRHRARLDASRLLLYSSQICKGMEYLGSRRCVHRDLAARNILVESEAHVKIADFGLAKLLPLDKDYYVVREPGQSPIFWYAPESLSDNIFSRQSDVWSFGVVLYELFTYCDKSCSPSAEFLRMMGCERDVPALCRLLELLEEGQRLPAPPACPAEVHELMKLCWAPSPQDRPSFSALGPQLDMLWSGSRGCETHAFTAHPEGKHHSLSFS
recombinant JAK1 (amino acids 866-1154), sequence (P23458 866-1154): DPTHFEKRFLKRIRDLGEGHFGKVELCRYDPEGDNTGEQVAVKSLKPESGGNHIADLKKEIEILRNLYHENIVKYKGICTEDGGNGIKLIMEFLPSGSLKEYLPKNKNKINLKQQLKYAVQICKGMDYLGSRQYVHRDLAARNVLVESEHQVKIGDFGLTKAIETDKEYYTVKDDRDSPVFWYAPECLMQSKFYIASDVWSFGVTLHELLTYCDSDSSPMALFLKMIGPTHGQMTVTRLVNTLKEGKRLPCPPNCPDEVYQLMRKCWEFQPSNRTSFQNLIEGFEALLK
recombinant JAK2 (amino acids 831-1132), sequence (O60674 831-1132): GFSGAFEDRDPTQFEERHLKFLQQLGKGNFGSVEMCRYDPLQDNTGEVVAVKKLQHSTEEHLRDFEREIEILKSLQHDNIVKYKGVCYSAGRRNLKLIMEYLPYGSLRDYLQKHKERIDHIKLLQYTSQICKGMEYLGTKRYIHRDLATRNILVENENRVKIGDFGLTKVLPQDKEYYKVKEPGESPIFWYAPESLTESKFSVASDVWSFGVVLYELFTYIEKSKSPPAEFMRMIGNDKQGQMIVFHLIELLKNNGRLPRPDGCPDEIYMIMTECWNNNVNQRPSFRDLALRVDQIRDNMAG

IC50 [1] [nM] | IC50 [2] [nM] | IC50 [3] [nM] | IC50 [4] [nM] | SMILES
< 3 | 41 | 162 | > 30000 | CC[C@@H](C(=O)Nc1cccc2c(-c3nc(Nc4cccc(S(C)(=O)=O)c4F)ncc3C)c[nH]c12)N1C[C@@H](C)N[C@H](C)C1 [Example 27, (S)-2-((3R,5R)-3,5-dimethylpiperazin-1-yl)-N-(3-(2-((2-fluoro-3-(methylsulfonyl)phenyl)amino)-5-methylpyrimidin-4-yl)-1H-indol-7-yl)butanamide]
45.2 | 147 | 7410 | > 30000 | COC[C@@H](C(=O)Nc1cccc2c(-c3nc(Nc4cccc(S(C)(=O)=O)c4F)ncc3C)c[nH]c12)N1C[C@@H](C)N[C@H](C)C1 [Example 28, (S)-2-((3R,5R)-3,5-dimethylpiperazin-1-yl)-N-(3-(2-((2-fluoro-3-(methylsulfonyl)phenyl)amino)-5-methylpyrimidin-4-yl)-1H-indol-7-yl)-3-methoxypropanamide]
< 3 | 39.9 | 1200 | > 30000 | COC[C@H](C(=O)Nc1cccc2c(-c3nc(Nc4cccc(S(C)(=O)=O)c4F)ncc3C)c[nH]c12)N1C[C@@H](C)N[C@H](C)C1 [Example 29, (R)-2-((3R,5R)-3,5-dimethylpiperazin-1-yl)-N-(3-(2-((2-fluoro-3-(methylsulfonyl)phenyl)amino)-5-methylpyrimidin-4-yl)-1H-indol-7-yl)-3-methoxypropanamide]
14.2 | 72 | 1160 | > 30000 | CC[C@@H](C(=O)Nc1cccc2c(-c3nc(Nc4cccc(S(C)(=O)=O)c4F)ncc3F)c[nH]c12)N1C[C@@H](C)N[C@H](C)C1 [Example 30, (S)-2-((3R,5R)-3,5-dimethylpiperazin-1-yl)-N-(3-(5-fluoro-2-((2-fluoro-3-(methylsulfonyl)phenyl)amino)pyrimidin-4-yl)-1H-indol-7-yl)butanamide]
6.4 | 74 | 1790 | > 30000 | CC[C@H](C(=O)Nc1cccc2c(-c3nc(Nc4cccc(S(C)(=O)=O)c4F)ncc3F)c[nH]c12)N1C[C@@H](C)N[C@H](C)C1 [Example 31, (R)-2-((3R,5R)-3,5-dimethylpiperazin-1-yl)-N-(3-(5-fluoro-2-((2-fluoro-3-(methylsulfonyl)phenyl)amino)pyrimidin-4-yl)-1H-indol-7-yl)butanamide]
482 | 933 | > 30000 | > 30000 | COC[C@@H](C(=O)Nc1cccc2c(-c3nc(Nc4cccc(S(C)(=O)=O)c4F)ncc3F)c[nH]c12)N1C[C@@H](C)N[C@H](C)C1 [Example 32]
< 3 | 55 | 1930 | > 30000 | COC[C@H](C(=O)Nc1cccc2c(-c3nc(Nc4cccc(S(C)(=O)=O)c4F)ncc3F)c[nH]c12)N1C[C@@H](C)N[C@H](C)C1 [Example 33, (R)-2-((3R,5R)-3,5-dimethylpiperazin-1-yl)-N-(3-(5-fluoro-2-((2-fluoro-3-(methylsulfonyl)phenyl)amino)pyrimidin-4-yl)-1H-indol-7-yl)-3-methoxypropanamide]
70.3 | 167 | > 30000 | > 30000 | CC[C@@H](C(=O)Nc1cccc2c(-c3nc(Nc4cccc(S(C)(=O)=O)c4F)ncc3C)c[nH]c12)N1CCCN(C)CC1 [Example 36, (S)-N-(3-(2-((2-fluoro-3-(methylsulfonyl)phenyl)amino)-5-methylpyrimidin-4-yl)-1H-indol-7-yl)-2-(4-methyl-1,4-diazepan-1-yl)butanamide]
< 3 | 26.9 | 968 | > 30000 | CC[C@H](C(=O)Nc1cccc2c(-c3nc(Nc4cccc(S(C)(=O)=O)c4F)ncc3C)c[nH]c12)N1CCCN(C)CC1 [Example 37, (R)-N-(3-(2-((2-fluoro-3-(methylsulfonyl)phenyl)amino)-5-methylpyrimidin-4-yl)-1H-indol-7-yl)-2-(4-methyl-1,4-diazepan-1-yl)butanamide]
3.3 | 42.6 | 6870 | > 30000 | CC[C@H](C(=O)Nc1cccc2c(-c3nc(Nc4cccc(S(C)(=O)=O)c4F)ncc3F)c[nH]c12)N1CCN(C)CC1 [Example 38]
256 | 446 | > 30000 | > 30000 | CC[C@@H](C(=O)Nc1cccc2c(-c3nc(Nc4cccc(S(C)(=O)=O)c4F)ncc3F)c[nH]c12)N1CCN(C)CC1 [Example 39, (S)-N-(3-(5-fluoro-2-((2-fluoro-3-(methylsulfonyl)phenyl)amino)pyrimidin-4-yl)-1H-indol-7-yl)-2-(4-methylpiperazin-1-yl)butanamide]
3280 | > 6250 | > 30000 | > 30000 | COC[C@@H](C(=O)Nc1cccc2c(-c3nc(Nc4cccc(S(C)(=O)=O)c4F)ncc3F)c[nH]c12)N1C[C@H](C)N(C)[C@@H](C)C1 [Example 40]
3.95 | 58 | 4820 | > 30000 | COC[C@H](C(=O)Nc1cccc2c(-c3nc(Nc4cccc(S(C)(=O)=O)c4F)ncc3F)c[nH]c12)N1C[C@H](C)N(C)[C@@H](C)C1 [Example 41, (R)-N-(3-(5-fluoro-2-((2-fluoro-3-(methylsulfonyl)phenyl)amino)pyrimidin-4-yl)-1H-indol-7-yl)-3-methoxy-2-((3S,5S)-3,4,5-trimethylpiperazin-1-yl)propanamide]
< 3 | 36 | 604 | > 30000 | COC[C@H](C(=O)Nc1cccc2c(-c3nc(Nc4cccc(S(C)(=O)=O)c4F)ncc3C)c[nH]c12)N1CCCN(C)CC1 [Example 42, (R)-N-(3-(2-((2-fluoro-3-(methylsulfonyl)phenyl)amino)-5-methylpyrimidin-4-yl)-1H-indol-7-yl)-3-methoxy-2-(4-methyl-1,4-diazepan-1-yl) propanamide]
95 | 477 | > 30000 | > 30000 | COC[C@@H](C(=O)Nc1cccc2c(-c3nc(Nc4cccc(S(C)(=O)=O)c4F)ncc3C)c[nH]c12)N1CCCN(C)CC1 [Example 43, (S)-N-(3-(2-((2-fluoro-3-(methylsulfonyl)phenyl)amino)-5-methylpyrimidin-4-yl)-1H-indol-7-yl)-3-methoxy-2-(4-methyl-1,4-diazepan-1-yl)propanamide]
953 | 3050 | > 30000 | > 30000 | COC[C@@H](C(=O)Nc1cccc2c(-c3nc(Nc4cccc(S(C)(=O)=O)c4F)ncc3F)c[nH]c12)N1CCCN(C)CC1 [Example 44, (S)-N-(3-(5-fluoro-2-((2-fluoro-3-(methylsulfonyl)phenyl)amino)pyrimidin-4-yl)-1H-indol-7-yl)-3-methoxy-2-(4-methyl-1,4-diazepan-1-yl)propanamide]
< 3 | 36 | 718 | > 30000 | COC[C@H](C(=O)Nc1cccc2c(-c3nc(Nc4cccc(S(C)(=O)=O)c4F)ncc3F)c[nH]c12)N1CCCN(C)CC1 [Example 45, (R)-N-(3-(5-fluoro-2-((2-fluoro-3-(methylsulfonyl)phenyl)amino)pyrimidin-4-yl)-1H-indol-7-yl)-3-methoxy-2-(4-methyl-1,4-diazepan-1-yl)propanamide]
19.8 | 83 | 17800 | > 30000 | C[C@H](C(=O)Nc1cccc2c(-c3nc(Nc4cccc(S(C)(=O)=O)c4F)ncc3F)c[nH]c12)N1CCCN(C)CC1 [Example 46, (R)-N-(3-(5-fluoro-2-((2-fluoro-3-(methylsulfonyl)phenyl)amino)pyrimidin-4-yl)-1H-indol-7-yl)-2-(4-methyl-1,4-diazepan-1-yl)propanamide]
180 | 619 | > 30000 | > 30000 | Cc1cnc(Nc2cccc(S(C)(=O)=O)c2F)nc1-c1c[nH]c2c(NC(=O)[C@H](C)N3CCN(C)C[C@H]3C)cccc12 [Example 47, (S)-2-((R)-2,4-dimethylpiperazin-1-yl)-N-(3-(2-((2-fluoro-3-(methylsulfonyl)phenyl)amino)-5-methylpyrimidin-4-yl)-1H-indol-7-yl)propanamide]
3 | 82 | 8230 | > 30000 | Cc1cnc(Nc2cccc(S(C)(=O)=O)c2F)nc1-c1c[nH]c2c(NC(=O)[C@@H](C)N3CCN(C)C[C@H]3C)cccc12 [Example 48, (R)-2-((R)-2,4-dimethylpiperazin-1-yl)-N-(3-(2-((2-fluoro-3-(methylsulfonyl)phenyl)amino)-5-methylpyrimidin-4-yl)-1H-indol-7-yl)propanamide]

Reference: patent US10961228B2, “JAK1 selective inhibitors” (AstraZeneca AB, priority 2017, dated 2021)
